What all share (assay): Transfection with β-galactosidase reporter plasmid pCMVSPORT-β-gal, β-gal activity (ONPG)
Format in all cases: cell-based

Experiment [1] deals with PC12. The note with it: PC12 cells; DMS lipid (1:1 DOPE), 1.0 μg plasmid DNA, 1.0 ug peptide; β-gal activity OD 405 nm.
Experiment [2] has as its system HepG2. The note with it: HepG2 cells; DMS lipid (1:1 DOPE), 1.0 μg plasmid DNA, 1.0 ug peptide; β-gal activity OD 405 nm. How it is done:
(§1) Transfection of, NIH3T3, HepG2, Human Fibroblast, Jurkat and Cos-7 and with β-galactosidase reporter plasmid pCMV[…]SPORT-β-gal was carried out as follows:
(§2) Cells were plated in 96-well plates with 100 μl of media containing 10% fetal calf serum the day before transfection such that a desired confluency (70%-95%) was achieved the following day. The following day DMS lipid (1:1 DOPE) and DNA/peptide were mixed in Opti-MEM to form DNA/lipid/peptide complexes. Complexes were formed by adding various amounts of lipid (1-6 μl) to 100 μl of Opti-MEM. Plasmid DNA (1.0 μg) was added to 100 μl Opti-MEM then 1.0 ug of each peptide was added to the DNA mixture and incubated for 10 minutes. The DNA/peptide and lipids solutions were then mixed to form DNA/peptide/lipid complexes. The complexes were incubated for an additional 15 minutes. After incubation 20 μl of each of the resulting complexes was added directly to the cells in 10% serum. Cells were incubated for an additional 16-24 hours to allow expression of the plasmid. Medium was removed and the cells were lysed in 100-200 μl of lysis buffer. The lysates (20 μl) were assayed for β-gal activity using the enzymatic substrate ONPG. Total activity was determined by reading the OD at 405 nm using a Bio-Rad Benchmark Microplate Spectrophotometer.

Experiment [3] deals with Human Fibroblast. The note with it: DMS lipid (1:1 DOPE), 1.0 μg plasmid DNA, 1.0 ug peptide, β-gal activity OD 405 nm. How it is done: as §1, §2
The subject of experiment [4] is NIH 3T3. To be noted: NIH 3T3 cells; DMS lipid (1:1 DOPE), 1.0 μg plasmid DNA, 1.0 ug peptide; β-gal activity OD 405 nm. How it is done: as §1, §2
For experiment [5], the system named is Jurkat. The note with it: Jurkat cells; DMS lipid (1:1 DOPE), 1.0 μg plasmid DNA, 1.0 ug peptide; β-gal activity OD 405 nm. How it is done:
as §1, §2

In the case of (K)16AARSPSYYRYDYGPYYAMDYD [Peptide #9], the “Fold Ehancement over Lipid Alone” value was determined as 2.68 Fold in experiment [1]; 4.25 Fold in experiment [2]; 21.9 Fold in experiment [3]; 2.17 Fold in experiment [4]; 5.78 Fold in experiment [5].
For (K)16NSRDSSGIQNV [Peptide #2], in that order: 2.09 Fold, 1.3 Fold, 14.5 Fold, 0.89 Fold and 4.8 Fold.
For (K)16DYYCAAWDDSLNGYSVF [Peptide #5], in that order: 1.6 Fold, 2 Fold, 12 Fold, 2.5 Fold and 1.28 Fold.
For (K)16YYCDIRLRDP [Peptide #1], in that order: 1.8 Fold, 0.97 Fold, 3.7 Fold, 1.7 Fold and 4.56 Fold.
For the substance (K)16YYCLQSMEDPYTFGG [Peptide #7], the “Fold Ehancement over Lipid Alone” value worked out at 0.91 Fold in experiment [1]; 3.3 Fold in experiment [2]; 29 Fold in experiment [3]; 1.46 Fold in experiment [4]; 1.47 Fold in experiment [5].
Take (K)16YYCARSDGNYGYYYALDYDY [Peptide #8]: the “Fold Ehancement over Lipid Alone” value in experiment [1] was determined as 0.37 Fold; in experiment [2], 1.6 Fold; in experiment [3], 19.9 Fold; in experiment [4], 1.86 Fold; in experiment [5], 1 Fold.
For (K)16YYCQQSYSTPWTFGQGTK [Peptide #10], in that order: 1.4 Fold, 2.5 Fold, 22.7 Fold, 2.1 Fold and 2 Fold.
For (K)16AAWDDSLGI [Peptide #3], in that order: 2.88 Fold, 1.9 Fold, 12.9 Fold, 1.5 Fold and 4.5 Fold.
(K)16VELDSFDY [Peptide #4]: the “Fold Ehancement over Lipid Alone” value turned out to be 2.5 Fold in experiment [1]; 1.2 Fold in experiment [2]; 11.7 Fold in experiment [3]; 1.65 Fold in experiment [4]; 4.75 Fold in experiment [5].
As to (K)16YYCQQRSSYPYTFGG [Peptide #6], the “Fold Ehancement over Lipid Alone” value in experiment [1] came to 1.13 Fold; in experiment [2], 4.2 Fold; in experiment [3] it was 34 Fold; in experiment [4], 1.93 Fold; in experiment [5], 1.75 Fold.
